Reference: patent US20180244699A1, “1-HYDROXY-3H-2,1-BENZOXABOROLE DERIVATIVES AND THEIR USE AS MICROBIOCIDES” (Syngenta Participations AG, priority 2015, published 2018)

Columns and labels:
Assay type in all cases: cell-based
[1] = test system: Monographella nivalis (Microdochium nivale); test: Monographella nivalis (Microdochium nivale) / liquid culture (foot rot cereals); details: growth inhibition photometrically 4-5 days after application, compared to untreated control
Description: (§1) 8. Monographella nivalis (Microdochium nivale)/Liquid Culture (Foot Rot Cereals) Conidia of the fungus from cryogenic storage are directly mixed into nutrient broth (PDB potato dextrose broth). After placing a (DMSO) solution of test compound into a microtiter plate (96-well format), the nutrient broth containing the fungal spores is added. The test plates are incubated at 24° C. and the inhibition of growth is determined photometrically 4-5 days after application.

[2] = test system: Gaeumannomyces graminis; test: Gaeumannomyces graminis / liquid culture (take-all of cereals); details: growth inhibition photometrically 4-5 days after application, compared to untreated control
Description: 6. Gaeumannomyces Graminis/Liquid Culture (Take-all of Cereals) Mycelial fragments of the fungus from cryogenic storage were directly mixed into nutrient broth (PDB potato dextrose broth). After placing a (DMSO) solution of test compound into a microtiter plate (96-well format), the nutrient broth containing the fungal spores is added. The test plates are incubated at 24° C. and the inhibition of growth is determined photometrically 4-5 days after application.

[3] = test system: Mycosphaerella arachidis (Cercospora arachidicola); test: Mycosphaerella arachidis (Cercospora arachidicola) / liquid culture (early leaf spot); details: growth inhibition photometrically 4-5 days after application, compared to untreated control
Description: as §1, with “9. Mycosphaerella arachidis (Cercospora arachidicola)/Liquid” for “8. Monographella nivalis (Microdochium nivale)/Liquid”, “(Early Leaf Spot)” for “(Foot Rot Cereals)”

[4] = test system: Thanatephorus cucumeris (Rhizoctonia solani); test: Thanatephorus cucumeris (Rhizoctonia solani) / liquid culture (foot rot, damping-off); details: growth inhibition photometrically 3-4 days after application, compared to untreated control
Description: 16. Thanatephorus cucumeris (Rhizoctonia solani)/Liquid Culture (Foot Rot, Damping-Off) Mycelia fragments of a newly grown liquid culture of the fungus are directly mixed into nutrient broth (PDB potato dextrose broth). After placing a (DMSO) solution of the test compounds into a microtiter plate (96-well format), the nutrient broth containing the fungal material is added. The test plates are incubated at 24° C. and the inhibition of growth is determined photometrically 3-4 days after application.

[5] = test system: Pythium ultimum; test: Pythium ultimum / liquid culture (seedling damping off); details: Globisporangium ultimum, growth inhibition photometrically 2-3 days after application, compared to untreated control
Method in brief: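 Fungal mycelia fragments and oospores from fresh liquid culture mixed into potato dextrose broth and added to DMSO solutions of test compound. Incubated at 24° C.; growth inhibition read photometrically 2-3 days after application.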

[6] = test system: Mycosphaerella graminicola (Septoria tritici); test: Mycosphaerella graminicola (Septoria tritici) / liquid culture (Septoria blotch); details: Zymoseptoria tritici, growth inhibition photometrically 4-5 days after application, compared to untreated control
Description: as §1, with “18. Mycosphaerella graminicola (Septoria tritici)/Liquid” for “8. Monographella nivalis (Microdochium nivale)/Liquid”, “(Septoria Blotch)” for “(Foot Rot Cereals)”

[7] = test system: Glomerella lagenarium (Colletotrichum lagenarium); test: Glomerella lagenarium (Colletotrichum lagenarium) / liquid culture (anthracnose); details: Colletotrichum orbiculare, growth inhibition photometrically 3-4 days after application, compared to untreated control
Description: as §1, with “3. Glomerella lagenarium (Colletotrichum lagenarium)/Liquid” for “8. Monographella nivalis (Microdochium nivale)/Liquid”, “(Anthracnose)” for “(Foot Rot Cereals)”, “measured” for “determined”, “3-4” for “4-5”

[8] = test system: Sclerotinia sclerotiorum; test: Sclerotinia sclerotiorum / liquid culture (cottony rot); details: growth inhibition photometrically 3-4 days after application, compared to untreated control
Description: 17. Sclerotinia sclerotiorum/Liquid Culture (Cottony Rot) Mycelia fragments of a newly grown liquid culture of the fungus are directly mixed into nutrient broth (PDB potato dextrose broth). After placing a (DMSO) solution of test compound into a microtiter plate (96-well format) the nutrient broth containing the fungal material is added. The test plates are incubated at 24° C. and the inhibition of growth is determined photometrically 3-4 days after application.

Measured: inhibition of growth at 20 ppm

CCOc1c(C(=O)OC)ccc2c1B(O)OC2 [Compound 4, methyl 7-ethoxy-1-hydroxy-3H-2,1-benzoxaborole-6-carboxylate]
≥ 80%: all assays above

COC(=O)c1ccc2c(c1OC(F)F)B(O)OC2 [Compound 16, methyl 7-(difluoromethoxy)-1-hydroxy-3H-2,1-benzoxaborole-6-carboxylate]
≥ 80%: [2] | [3] | [5] | [8]

COc1c(C(=O)Nc2nnc(C(F)(F)F)s2)ccc2c1B(O)OC2 [Compound 64, 1-hydroxy-7-methoxy-N-[5-(trifluoromethyl)-1,3,4-thiadiazol-2-yl]-3H-2,1-benzoxaborole-6-carboxamide]
≥ 80%: [1] | [2] | [5] | [7] | [8]

COC(=O)C#CCOC(=O)c1ccc2c(c1OC)B(O)OC2 [Compound 79, (4-methoxy-4-oxo-but-2-ynyl) 1-hydroxy-7-methoxy-3H-2,1-benzoxaborole-6-carboxylate]
≥ 80%: all assays above

COc1c(C(=O)OC(C)c2cccc(Cl)c2)ccc2c1B(O)OC2 (stereo not drawn) [Compound 83, 1-(3-chlorophenyl)ethyl 1-hydroxy-7-methoxy-3H-2,1-benzoxaborole-6-carboxylate]
not listed: [3] | [8]
≥ 80%: all other assays above

COc1c(C(=O)OCCc2scnc2C)ccc2c1B(O)OC2 [Compound 84, 2-(4-methylthiazol-5-yl)ethyl 1-hydroxy-7-methoxy-3H-2,1-benzoxaborole-6-carboxylate]
≥ 80%: [1] | [2] | [3] | [5] | [7]

COc1c(C(=O)OCc2ccccc2)ccc2c1B(O)OC2 [Compound 85, benzyl 1-hydroxy-7-methoxy-3H-2,1-benzoxaborole-6-carboxylate]
not listed: [3] | [8]
≥ 80%: all other assays above

COc1c(C(=O)OC(CC(F)(F)F)c2ccccc2)ccc2c1B(O)OC2 (stereo not drawn) [Compound 89, (3,3,3-trifluoro-1-phenyl-propyl) 1-hydroxy-7-methoxy-3H-2,1-benzoxaborole-6-carboxylate]
≥ 80%: [1] | [2] | [4] | [5] | [7]

COc1c(C(=O)OCC2SCCS2)ccc2c1B(O)OC2 [Compound 100, 1,3-dithiolan-2-ylmethyl 1-hydroxy-7-methoxy-3H-2,1-benzoxaborole-6-carboxylate]
≥ 80%: [1] | [2] | [4] | [5] | [7]

CC#CCCOC(=O)c1ccc2c(c1OC)B(O)OC2 [Compound 105, pent-3-ynyl 1-hydroxy-7-methoxy-3H-2,1-benzoxaborole-6-carboxylate]
not listed: [4] | [8]
≥ 80%: all other assays above

COc1cccc(C#CCOC(=O)c2ccc3c(c2OC)B(O)OC3)c1 [Compound 107, 3-(3-methoxyphenyl)prop-2-ynyl 1-hydroxy-7-methoxy-3H-2,1-benzoxaborole-6-carboxylate]
not listed: [3] | [8]
≥ 80%: all other assays above

COc1c(C(=O)OCCc2ccccc2)ccc2c1B(O)OC2 [Compound 110, phenethyl 1-hydroxy-7-methoxy-3H-2,1-benzoxaborole-6-carboxylate]
not listed: [4] | [8]
≥ 80%: all other assays above

CCOC(=O)COC(=O)c1ccc2c(c1OC)B(O)OC2 [Compound 111, (2-ethoxy-2-oxo-ethyl) 1-hydroxy-7-methoxy-3H-2,1-benzoxaborole-6-carboxylate]
≥ 80%: [1] | [2] | [4] | [5] | [7]

COc1c(C(=O)OCC(C)(C)Cc2ccccc2)ccc2c1B(O)OC2 [Compound 117, (2,2-dimethyl-3-phenyl-propyl) 1-hydroxy-7-methoxy-3H-2,1-benzoxaborole-6-carboxylate]
≥ 80%: [1] | [2] | [4] | [6] | [7]

COc1c(C(=O)OCC2CC2C)ccc2c1B(O)OC2 (stereo not drawn) [Compound 118, (2-methylcyclopropyl)methyl 1-hydroxy-7-methoxy-3H-2,1-benzoxaborole-6-carboxylate]
≥ 80%: [1] | [2] | [5] | [6] | [7]

COc1c(C(=O)OCCc2ccccc2F)ccc2c1B(O)OC2 [Compound 124, 2-(2-fluorophenyl)ethyl 1-hydroxy-7-methoxy-3H-2,1-benzoxaborole-6-carboxylate]
not listed: [3] | [8]
≥ 80%: all other assays above

COc1c(C(=O)OCCC(C)C)ccc2c1B(O)OC2 [Compound 129, isopentyl 1-hydroxy-7-methoxy-3H-2,1-benzoxaborole-6-carboxylate]
≥ 80%: [1] | [2] | [5] | [6] | [7]

COc1c(C(=O)OC(C)CCc2ccccc2)ccc2c1B(O)OC2 (stereo not drawn) [Compound 130, (1-methyl-3-phenyl-propyl) 1-hydroxy-7-methoxy-3H-2,1-benzoxaborole-6-carboxylate]
not listed: [3] | [8]
≥ 80%: all other assays above
